Data: US20250333486A1, “Anti-HSP90 alpha antibody and uses thereof” (NATIONAL HEALTH RESEARCH INSTITUTES, priority 2021, published 2025)

Assays:
[1] = system: ARPE-19 retinal pigmented epithelial cells; assay: Retinal cell toxicity assay (MTS); type: cell-based, human; details: 72-h treatment, MTS; read-out: IC50 of cytotoxicity to ARPE-19 cells
Protocol: ARPE-19 cells were seeded onto 96-well plates at a density of 4000 cells per well, and then treated in triplicate with various concentrations of 17-AAG or anti-HSP90α antibody HH01 for 72 h. The 3-(4,5-dimethylthiazol-2-yl)-5-(3-carboxymethoxyphenyl)-2-(4-sulfophenyl)-2H-tetrazolium (MTS; Sigma-Aldrich) assay was employed and OD490 was measured to evaluate cell viability upon each treatment.

eHSP90α—TLR4 ligation = details: Chua et al., Cells 2020; cited from earlier work
[2] = system: PANC-1 plus EndoMT cell grafts; assay: Therapeutic efficacy in desmoplastic humanized mouse PDAC transplant model; type: in vivo; details: hHSC-transplanted ASID mice; antibody 5 mg/kg x3, gemcitabine 100 mg/kg x2, IV
PANC-1 cells [3] = assay: Transwell invasion assay, rHSP90α-induced PANC-1 invasion; type: cell-based, human; details: 15 μg/ml rHSP90α plus 15 μg/ml peptide
Protocol: In a 37° C. and 5% CO2 humidified incubator, cancer cells were subjected to serum starvation in 0.5% FBS-containing medium for 16 h, and then added […] After another 24 h, the treated cells were harvested as aliquots (1×10^5 cells per aliquot) in 0.5% FBS-containing culture medium, and then each aliquot was seeded into a top chamber of Transwell inserts pre-coated with 5-fold diluted Matrigel (BD Biosciences). Cells were allowed 16 h to invade through the Matrigel toward the bottom chambers containing culture medium plus 10% FBS. The filters of the Transwell inserts were then fixed and stained with Giemsa. Invasive cells on the lower side of filters were photographed using the Axiovert S100/AxioCam HR microscope system (Carl Zeiss, Oberkochen, Germany) and further quantified by the Image-Pro Plus software (Media Cybernetics, Inc., Silver Spring, MD, USA).

PANC-1 cells [4] = assay: Cell spheroid-forming assay, rHSP90α-induced PANC-1 spheroids; type: cell-based, human; details: 15 μg/ml rHSP90α plus 15 μg/ml peptide
Protocol: One thousand cancer cells were seeded onto each well of 24-well plates pre-coated with a 4-mm thick layer of 0.5% agarose. After incubation 24 h with serum-free medium at 37° C. plus a 5% CO2 humidified atmosphere, cells were added with PBS or 15 μg/ml of rHSP90α in the absence or presence of 10 μg/ml of control IgG or the tested anti-HSP90α antibody. The incubation was kept for 10-14 days with supplements of some fresh serum-free medium every 3 days. Finally, the cell spheroids characterized by tight, non-adherent, and >100 μm in diameter were photographed and counted under an Olympus IX 71 inverted microscope (Center Valley, PA, USA). The spheroid formation % was calculated by the formula: (number of cell spheroids/1000)×100%.

For `C=CCNC1=C2C[C@@H](C)C[C@H](OC)[C@H](O)[C@@H](C)/C=C(\C)[C@H](OC(N)=O)[C@@H](OC)/C=C\C=C(/C)C(=O)NC(=CC1=O)C2=O` [Clone 17-AAG, 17-AAG, reference compound], the IC50 [1] was 64.7 nM.

In the case of `CCCCCCCCOC(=O)c1cc(O)c(O)c(O)c1` [Octyl gallate], the “effect on EndoMT-derived CAFs and eHSP90α-induced macrophage M2-polarization and HSP90α expression” value (eHSP90α—TLR4 ligation) is given as “inhibitory effect”.

With `Nc1ccn([C@@H]2O[C@H](CO)[C@@H](O)C2(F)F)c(=O)n1` [gemcitabine] the tumor growth curves [2] was “significantly repressed tumors after the second administration of gemcitabine”.

With “peptide with a sequence of the a.a. 227-272 region of HSP90α: synthesized epitopes-containing peptide with the sequence of a.a. 227-272 of HSP90α (DKEVSDDEAEEKEDKEEEKEKEEKESEDKPEIEDVGSDEEEEKKDG; UniProt P07900 227-272, looked up, fragment)” the “rHSP90α-induced PANC-1 cell invasion” value (PANC-1 cells [3]) was “competitively suppressed” and the “rHSP90α-induced PANC-1 spheroid formation” value (PANC-1 cells [4]) was “competitively suppressed”.
